The values that follow come from patent publication US9108984B2, “Substituted diamino-pyrimidine and diamino-pyridine derivatives as PI3K inhibitors” (Incyte Corporation, priority 2011, dated 2015).

In one assay the target is PI3Kδ (p110δ/p85α) (Homo sapiens (Human), UniProt O00329). As to the kind of experiment: PI3Kδ scintillation proximity assay (enzyme assay). It is filed as biochemical. The following applies: PI3Kδ SPA, 20 μM ATP, 20 μM PIP2, 210 min. An excerpt:
PI3Kδ Scintillation Proximity Assay
[γ-^33P]ATP (10 mCi/mL) was purchased from Perkin-Elmer (Waltham, Mass.). Lipid kinase substrate, D-myo-Phosphatidylinositol 4,5-bisphosphate (PtdIns(4,5)P2)D (+)-sn-1,2-di-O-octanoylglyceryl, 3-O-phospho linked (PIP2), CAS 204858-53-7, was purchased from Echelon Biosciences (Salt Lake City, Utah). PI3Kδ (p110δ/p85α) was purchased from Millipore (Bedford, Mass.). ATP, MgCl2, DTT, EDTA, MOPS and CHAPS were purchased from Sigma-Aldrich (St. Louis, Mo.). Wheat Germ Agglutinin (WGA) YSi SPA Scintillation Beads was purchased from GE healthcare life sciences (Piscataway, N.J.).
The kinase reaction was conducted in polystyrene 384-well matrix white plate from Thermo Fisher Scientific in a final volume of 25 μL. Inhibitors were first diluted serially in DMSO and added to the plate wells before the addition of other reaction components. The final concentration of DMSO in the assay was 0.5%. The PI3K assays were carried out at room temperature in 20 mM MOPS, pH 6.7, 10 mM MgCl2, 5 mM DTT and CHAPS 0.03%. Reactions were initiated by the addition of ATP, the final reaction mixture consisted of 20 μM PIP2, 20 μM ATP, 0.2 μCi [γ-^33P] ATP, 4 nM PI3Kδ. […] After the plate sealing, plates were shaken overnight at room temperature and centrifuged at 1800 rpm for 10 minutes, the radioactivity of the product was determined by scintillation counting on Topcount (Perkin-Elmer). […]
On the technique in general: Scintillation proximity formats need no separation of bound from free tracer.

Assay [1] has as its system Pfeiffer cells (diffuse large B cell lymphoma). The assay can be described thus: Pfeiffer cell proliferation assay. It is filed as cell-based. The following applies: Homo sapiens, [3H]-thymidine incorporation, 3-4 days. On the procedure: Pfeiffer Cell Proliferation Assay
Pfeiffer cell line (diffuse large B cell lymphoma) was purchased from ATCC (Manassas, Va.) and maintained in the culture medium recommended (RPMI and 10% FBS). To measure the anti-proliferation activity of the compounds, the Pfeiffer cells were plated with the culture medium (2×10^3 cells/well/per 200 μl) into 96-well ultra-low binding plates (Corning, Corning, N.Y.), in the presence or absence of a concentration range of test compounds. After 3-4 days, [^3H]-thymidine (1 μCi/well) (PerkinElmer, Boston, Mass.) in PBS wass then added to the cell culture for an additional 12 hours before the incorporated radioactivity was separated by filtration with water through GF/B filters (Packard Bioscience, Meridenj, Conn.) and measured by liquid scintillation counting with a TopCount (Packard Bioscience).
A general note: Incorporation of labelled thymidine or its analogues reports DNA synthesis.

Chain of PI3Kδ (p110δ/p85α) (O00329 whole entry): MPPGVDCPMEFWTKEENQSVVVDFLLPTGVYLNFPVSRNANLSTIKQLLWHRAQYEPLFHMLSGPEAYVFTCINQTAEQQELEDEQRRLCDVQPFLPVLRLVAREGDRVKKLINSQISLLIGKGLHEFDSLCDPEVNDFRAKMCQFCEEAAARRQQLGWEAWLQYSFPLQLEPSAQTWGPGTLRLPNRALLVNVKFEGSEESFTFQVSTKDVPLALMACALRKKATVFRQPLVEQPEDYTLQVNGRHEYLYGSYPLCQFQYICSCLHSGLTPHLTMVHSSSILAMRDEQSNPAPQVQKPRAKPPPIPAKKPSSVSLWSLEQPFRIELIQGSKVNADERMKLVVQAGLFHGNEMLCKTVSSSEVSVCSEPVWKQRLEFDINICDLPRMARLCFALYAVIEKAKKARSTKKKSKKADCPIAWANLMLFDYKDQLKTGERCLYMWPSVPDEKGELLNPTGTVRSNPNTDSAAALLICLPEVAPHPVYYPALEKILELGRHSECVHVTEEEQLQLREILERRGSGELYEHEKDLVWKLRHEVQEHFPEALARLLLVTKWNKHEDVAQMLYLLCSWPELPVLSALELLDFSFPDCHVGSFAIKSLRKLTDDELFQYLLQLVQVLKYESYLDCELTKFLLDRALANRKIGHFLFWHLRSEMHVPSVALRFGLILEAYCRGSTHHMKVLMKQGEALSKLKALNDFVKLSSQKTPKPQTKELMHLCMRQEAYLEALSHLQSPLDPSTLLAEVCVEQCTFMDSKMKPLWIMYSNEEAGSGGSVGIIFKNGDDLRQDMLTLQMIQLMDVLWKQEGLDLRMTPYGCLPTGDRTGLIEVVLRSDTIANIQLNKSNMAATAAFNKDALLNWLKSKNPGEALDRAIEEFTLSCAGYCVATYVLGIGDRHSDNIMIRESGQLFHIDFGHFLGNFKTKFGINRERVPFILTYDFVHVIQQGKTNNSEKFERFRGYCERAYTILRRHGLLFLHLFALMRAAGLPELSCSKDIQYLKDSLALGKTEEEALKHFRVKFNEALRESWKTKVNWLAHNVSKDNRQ
Chain of PI3Kδ (p110δ/p85α) (P27986 whole entry partner): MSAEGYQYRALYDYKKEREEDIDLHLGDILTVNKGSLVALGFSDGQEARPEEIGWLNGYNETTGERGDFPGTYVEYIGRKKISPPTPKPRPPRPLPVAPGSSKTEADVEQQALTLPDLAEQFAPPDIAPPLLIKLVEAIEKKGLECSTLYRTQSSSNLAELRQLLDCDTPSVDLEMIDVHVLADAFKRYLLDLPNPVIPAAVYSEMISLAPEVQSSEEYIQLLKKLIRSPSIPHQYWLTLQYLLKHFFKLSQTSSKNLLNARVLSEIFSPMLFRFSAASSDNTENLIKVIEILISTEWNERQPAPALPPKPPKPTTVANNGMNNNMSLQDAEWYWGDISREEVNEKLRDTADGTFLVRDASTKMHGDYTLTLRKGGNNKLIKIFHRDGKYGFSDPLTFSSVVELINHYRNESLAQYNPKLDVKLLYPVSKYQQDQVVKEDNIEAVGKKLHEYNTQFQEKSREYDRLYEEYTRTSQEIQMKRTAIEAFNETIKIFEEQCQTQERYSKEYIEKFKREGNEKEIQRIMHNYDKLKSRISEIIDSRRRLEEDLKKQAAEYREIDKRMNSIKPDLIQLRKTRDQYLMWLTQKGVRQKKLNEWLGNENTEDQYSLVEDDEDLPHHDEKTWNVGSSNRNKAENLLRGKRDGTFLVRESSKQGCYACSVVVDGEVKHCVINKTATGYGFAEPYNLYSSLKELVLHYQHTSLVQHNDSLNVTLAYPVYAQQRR

Broadly, the IC50 is the concentration that gives 50% inhibition. Lower therefore signals greater potency. On to `CC(Nc1ncnc(N)c1C#N)c1cc(Cl)c2ccnnc2c1-c1cccc(F)c1` (single isomer, unassigned) [Example 1, 4-Amino-6-({1-[5-chloro-8-(3-fluorophenyl)cinnolin-7-yl]ethyl}amino)-pyrimidine-5-carbonitrile], for which the IC50 (on PI3Kδ (p110δ/p85α); in assay [1]) was < 0.02 µM in each case.

With `Cc1csc2nc([C@H](C)Nc3ncnc(N)c3C#N)c(-c3cccc(F)c3)c(=O)n12` [Example 2, 4-amino-6-({(1S)-1-[6-(3-fluorophenyl)-3-methyl-5-oxo-5H-[1,3]thiazolo[3,2-a]pyrimidin-7-yl]ethyl}amino)pyrimidine-5-carbonitrile], the IC50 (against PI3Kδ (p110δ/p85α); in assay [1]) was < 0.02 µM in each case.
